The values below come from patent US5686448A (priority 1995, dated 1997).

In one series the test system is cell-free HSV virus. To be noted: 20 mg/ml. The method, then:
Both mixtures were maintained at 4° C. for 30 minutes, 60 minutes, or 90 minutes. 0.3 ml of the solutions were plated onto susceptible cell cultures and incubated at 37° C. for 36 hours. All cultures were stained and compared to the virus control.

On series [1], the source says: Patient B is a person diagnosed as having both HSV type 1 (expressed as oral lesions) and HSV type 2 (expressed as penile lesions).
Patient E is a person who weighed 93 kg when they reported for treatment.
Patient K is a person who weighed 59 kg. when they reported for treatment. They were diagnosed as having HSV type 2. They described a history of lesions on the buttocks and genital region with attacks occurring monthly in cooler weather and weekly in warmer weather.

Where two headings read alike, the source gives them in different places.

Take `CC[N+](CC)(CC)CC.[Cl-]` [TEAC, tetraethylammonium chloride]: the crusting entry with HSV type 1 (Patient L, 2.9 cc, normally 3 weeks) is “on the 7th day after the treatment, the crusting had all disappeared”. Besides, the labialis lesion result in the series with HSV type 1 (Patient M, 1% TEAC ointment resumed, three days later) was “the lesion had not spread and had now crusted”. In the series with HSV type 1 (Patient M, 1% TEAC ointment, five days later), the clearing of lesions result is recorded as “cleared in a shorter time period than usual”. The “inactivation of cell-free virus” value in the series with cell-free HSV virus was “does not inactivate the virus”. The side effects result in series [1] (Patient A, first infusion 2.8 cc) is “some blurred vision and slight dizziness on rising to the seated position”; in series [1] (Patient A, second infusion 3.2 cc), “some blurred vision”; in series [1] (Patient C, 3.85 cc (5 mg/kg)) it was “slightly blurred vision”; in series [1] (Patient D, 2.8 cc (5 mg/kg)), “dry mouth and transient blurred vision”; in series [1] (Patient E, 4.8 cc (5 mg/kg)), “slightly blurred vision”; in series [1] (Patient J, 3.6 cc (5.5 mg/kg)), “some blurred vision”. The side effects entry in series [1] (Patient K, first infusion 3.1 cc) is reported as “some blurred vision”; in series [1] (Patient K, second infusion 3.4 cc), “blurred vision”; in series [1] (Patient L, 2.9 cc (5.5 mg/kg)), “some blurred vision”. The drug related effects entry in series [1] (Patient B, 3.7 cc (5 mg/kg)) was “blurred vision, dryness of the mouth, and unsteady gait”. Further, the “time to cessation of drug related effects after infusion” value in series [1] (Patient B, 3.7 cc (5 mg/kg)) lay in the range of 10 to 15 min. In addition, in series [1] (Patient G, 4.3 cc), the reddening of lip result is listed as “some reddening of the lip”. The “duration of feeling badly following treatment” value in series [1] (Patient L, 2.9 cc (5.5 mg/kg)) was in the range of 24 to 36 h.
